How the values were obtained:
hTERT-BJ1 = assay: Hoechst-based 2D-cell viability assay, hTERT-BJ1 monolayer; parameters: species or system human; conditions: for toxicity in the non-tumoral cell line hTERT-BJ1: up to the concentration of 90 μM
Description: As used in the tables, “IC50 (MCF7 mammosphere)” refers to the half maximal inhibitory concentration in the 3D-mammosphere assay, using the ER+ breast cancer cell line, MCF7. The term “IC50 (MCF7 monolayer)” refers to the half maximal inhibitory concentration in the 2D-cell viability assay, using the ER+ breast cancer cell line, MCF7. The term “IC50 (BJ1 monolayer)” refers to the half maximal inhibitory concentration in the 2D-cell viability assay, using the immortalized non-tumoral fibroblast cell line, hTERT-BJ1. The term “SI (mammosphere/monolayer MCF7)” refers to the mammosphere selectivity index, a ratio between IC50 values comparing the biological activity in the 3D and 2D assays against MCF7. The term “SI (BJ1/MCF7 monolayer)” refers to the cancer selectivity index, a ratio between IC50 values comparing the biological activity in the cell viability assays against MCF7 and hTERT-BJ1. With respect to cell culture and reagents, the human breast adenocarcinoma cell line (MCF-7) was from the American Type Culture Collection (ATCC). hTERT-BJ1 cells were from Clontech, Inc. MCF-7 and hTERT-BJ1 cells were grown in DMEM supplemented with 10% fetal bovine serum, GlutaMAX and 1% penicillin-streptomycin and incubated at 37C in a humidified 5% CO2 incubator. The medium was changed 2-3 times/week. A Hoechst-based viability assay was used to characterize the selectivity of compounds according to the present approach, for the preferential targeting of cancer cells. Briefly, MCF7 cell monolayers were treated with a compound at concentrations ranging from 1 μM to 100 μM, for a period of one day. Cell viability was assessed using Hoechst 33342, a nuclear dye that stains DNA in live cells. The viability of normal human fibroblasts (hTERT-BJ1) treated with the compounds described herein was also assessed in parallel. Quantitation was performed with a plate-reader.

MCF7 [1] = assay: Mammosphere formation assay (3D-mammosphere assay); type: cell-based, human; conditions: for inhibition of MCF7 cells in the mammosphere assay compared to parent compound: concentrations from 1 μM to 100 μM; for SI (mammosphere/monolayer MCF7): mammosphere selectivity index, ratio between IC50 values in the 3D and 2D assays against MCF7
Description: As used in the tables, “IC50 (MCF7 mammosphere)” refers to the half maximal inhibitory concentration in the 3D-mammosphere assay, using the ER+ breast cancer cell line, MCF7. The term “IC50 (MCF7 monolayer)” refers to the half maximal inhibitory concentration in the 2D-cell viability assay, using the ER+ breast cancer cell line, MCF7. The term “IC50 (BJ1 monolayer)” refers to the half maximal inhibitory concentration in the 2D-cell viability assay, using the immortalized non-tumoral fibroblast cell line, hTERT-BJ1. The term “SI (mammosphere/monolayer MCF7)” refers to the mammosphere selectivity index, a ratio between IC50 values comparing the biological activity in the 3D and 2D assays against MCF7. The term “SI (BJ1/MCF7 monolayer)” refers to the cancer selectivity index, a ratio between IC50 values comparing the biological activity in the cell viability assays against MCF7 and hTERT-BJ1.
FIGS. 1-3 are dose-response curves for various compounds described herein, using the mammosphere assay. The assay was performed using the MCF7 cell line. The curves are plotted as a mean of two independent experiments, and the standard deviation for each point is represented by vertical bars. The inhibition percentage is shown as a function of the log of the concentration (μM). […] Similar effects are expected for compounds having the general formula [1D].
With respect to cell culture and reagents, the human breast adenocarcinoma cell line (MCF-7) was from the American Type Culture Collection (ATCC). hTERT-BJ1 cells were from Clontech, Inc. MCF-7 and hTERT-BJ1 cells were grown in DMEM supplemented with 10% fetal bovine serum, GlutaMAX and 1% penicillin-streptomycin and incubated at 37C in a humidified 5% CO2 incubator. The medium was changed 2-3 times/week.
Mammosphere formation assay: A single cell suspension was prepared using enzymatic (lx Trypsin-EDTA, Sigma Aldrich, cat. #T3924), and manual disaggregation (25 gauge needle). Five thousand cells were plated with in mammosphere medium (DMEM-F12/B27/20 ng/ml EGF/PenStrep), under non-adherent conditions, in six wells plates coated with 2-hydroxyethylmethacrylate (poly-HEMA, Sigma, cat. #P3932). Cells were grown for 5 days and maintained in a humidified incubator at 37° C. at an atmospheric pressure in 5% (v/v) carbon dioxide/air. After 5 days, 3D spheroids with a diameter greater than 50 μm were counted using a microscope, fitted with a graticule eye-piece, and the percentage of cells which formed spheroids was calculated and normalized to one (1=100% MFE; mammosphere forming efficiency). Mammosphere assays were performed in triplicate and repeated three times independently.

MCF7 [2] = assay: Hoechst-based 2D-cell viability assay, MCF7 monolayer; parameters: species or system human
Description: As used in the tables, “IC50 (MCF7 mammosphere)” refers to the half maximal inhibitory concentration in the 3D-mammosphere assay, using the ER+ breast cancer cell line, MCF7. The term “IC50 (MCF7 monolayer)” refers to the half maximal inhibitory concentration in the 2D-cell viability assay, using the ER+ breast cancer cell line, MCF7. The term “IC50 (BJ1 monolayer)” refers to the half maximal inhibitory concentration in the 2D-cell viability assay, using the immortalized non-tumoral fibroblast cell line, hTERT-BJ1. The term “SI (mammosphere/monolayer MCF7)” refers to the mammosphere selectivity index, a ratio between IC50 values comparing the biological activity in the 3D and 2D assays against MCF7. The term “SI (BJ1/MCF7 monolayer)” refers to the cancer selectivity index, a ratio between IC50 values comparing the biological activity in the cell viability assays against MCF7 and hTERT-BJ1. […] Cell viability was assessed using Hoechst 33342, a nuclear dye that stains DNA in live cells. The viability of normal human fibroblasts (hTERT-BJ1) treated with the compounds described herein was also assessed in parallel. Quantitation was performed with a plate-reader.

CN(C)C(=O)c1cc2cnc(Nc3ccc(N4CCNCC4)cn3)nc2n1C1CCCC1 [Ribociclib, 7-cyclopentyl-N,N-dimethyl-2-[(5-piperazin-1-ylpyridin-2-yl)amino]pyrrolo[2,3-d]pyrimidine-6-carboxamide]
potency on hTERT-BJ1 compared to Compound [1C] (dose-response curves, FIG. 7) (hTERT-BJ1; Hoechst staining assay, hTERT-BJ1): more potent at most concentrations tested
toxicity in the non-tumoral cell line hTERT-BJ1 (hTERT-BJ1): non-toxic

CCCCCCCCCCCCCC(=O)N1CCN(c2ccc(Nc3ncc4cc(C(=O)N(C)C)n(C5CCCC5)c4n3)nc2)CC1 [Compound [1C], 7-cyclopentyl-N,N-dimethyl-2-[[5-(4-tetradecanoylpiperazin-1-yl)-2-pyridyl]amino]pyrrolo[2,3-d]pyrimidine-6-carboxamide]
improvement in potency in the 3D-mammosphere assay compared to the parent compound (MCF7 [1]; IC50 ratio vs. Ribociclib): 7 fold
inhibition of MCF7 cells in the mammosphere assay compared to parent compound (MCF7 [1]): remarkably improved inhibition
potency against MCF7 cells compared to parent compound (dose-response curves, FIG. 4) (MCF7 [2]; Hoechst staining assay, MCF7, each concentration): more potent
toxicity in the non-tumoral cell line hTERT-BJ1 (hTERT-BJ1): non-toxic

CCN1CCN(Cc2ccc(Nc3ncc(F)c(-c4cc(F)c5nc(C)n(C(C)C)c5c4)n3)nc2)CC1 [Abemaciclib, N-[5-[(4-ethylpiperazin-1-yl)methyl]pyridin-2-yl]-5-fluoro-4-(7-fluoro-2-methyl-3-propan-2-ylbenzimidazol-5-yl)pyrimidin-2-amine, reference compound]
SI (mammosphere/monolayer MCF7) (MCF7 [1]): >250
IC50 (hTERT-BJ1; Homo sapiens, Table 3, unit inferred, 2D-cell viability assay, hTERT-BJ1): 30 ± 6 µM

CCCCCCCCCCCCCC(=O)N1CCN(c2ccc(Nc3ncc4c(C)c(C(C)=O)c(=O)n(C5CCCC5)c4n3)nc2)CC1 [Compound [2C], 6-acetyl-8-cyclopentyl-5-methyl-2-[[5-(4-tetradecanoylpiperazin-1-yl)-2-pyridyl]amino]pyrido[2,3-d]pyrimidin-7-one]
inhibition of MCF7 cells in the mammosphere assay compared to parent compound (MCF7 [1]): remarkably improved inhibition
toxicity in the 2D-cell viability assay (MCF7 [2]; MCF7 monolayer, up to a concentration of 30 μM): non-toxic
toxicity in the non-tumoral cell line hTERT-BJ1 (hTERT-BJ1): non-toxic

CC(=O)c1c(C)c2cnc(Nc3ccc(N4CCNCC4)cn3)nc2n(C2CCCC2)c1=O [Palbociclib, 6-acetyl-8-cyclopentyl-5-methyl-2-(5-piperazin-1-yl-pyridin-2-ylamino)-8H-pyrido[2,3-d]pyrimidin-7-one, reference compound]
SI (mammosphere/monolayer MCF7) (MCF7 [1]): non-selective
toxicity in the non-tumoral cell line hTERT-BJ1 (hTERT-BJ1): non-toxic

From patent publication US12358920B2, “Substituted pyrrolo[2,3-d]pyrimidines as selective CDK 4/6 inhibitors” (LUNELLA BIOTECH, INC., priority 2019, dated 2025)
